Experiments:
[1] = Stability of the compound in pure water by LCMS method; assay type: physicochemical
Staphylococcus aureus [2] = experiment: Antibacterial activity against hospital-acquired methicillin-resistant Staphylococcus aureus ATCC 33592 incubated for 72 hrs; assay type: functional; details: ATCC 33592, 72 h
Pseudomonas aeruginosa = experiment: Antibacterial activity against Pseudomonas aeruginosa PAO1 incubated for 72 hrs; assay type: functional; details: PAO1, 72 h
Escherichia coli = experiment: Antibacterial activity against Escherichia coli MC4100 incubated for 72 hrs; assay type: functional; details: str. K-12 substr. MC4100, 72 h
Enterococcus faecalis = experiment: Antibacterial activity against Enterococcus faecalis OG1RF incubated for 72 hrs; assay type: functional
Staphylococcus aureus [3] = experiment: Antibacterial activity against community acquired methicillin-resistant Staphylococcus aureus USA300-0114 incubated for 72 hrs; assay type: functional; details: USA300-0114, 72 h
Staphylococcus aureus [4] = experiment: Antibacterial activity against methicillin-susceptible Staphylococcus aureus SH1000 incubated for 72 hrs; assay type: functional; details: SH1000, 72 h

| SMILES | Stability [1] | MIC (Staphylococcus aureus [2]) [µM] | MIC (Pseudomonas aeruginosa) [µM] | MIC (Escherichia coli) [µM] | MIC (Enterococcus faecalis) [µM] | MIC (Staphylococcus aureus [3]) [µM] | MIC (Staphylococcus aureus [4]) [µM] |
| --- | --- | --- | --- | --- | --- | --- | --- |
| CCCCCCCCCCCCOC(=O)C[N+](C)(C)CC[N+](C)(C)CC(=O)OCCCCCCCCCCCC.[Br-].[Br-] | Stable | 32 | 125 | 63 | 32 | 16 | 16 |
| CCCCCCCCCCNC(=O)C[N+](C)(C)Cc1ccccc1.[Br-] | Stable | 8 | 125 | 32 | 16 | 8 | 8 |
| CCCCCCCCCOC(=O)C[N+](C)(C)CCN1CC[N+](C)(CC(=O)OCCCCCCCCC)CC1.[Br-].[Br-] | Stable | 4 | 125 | 16 | 8 | 4 | 4 |
| CCCCCCCOC(=O)C[N+](C)(C)Cc1ccccc1.[Br-] | Stable | > 250 | > 250 | > 250 | > 250 | > 250 | > 250 |
| CCCCCCCCCOC(=O)C[N+](C)(C)CCC[N+](C)(CCC[N+](C)(C)CC(=O)OCCCCCCCCC)CC(=O)OCCCCCCCCC.[Br-].[Br-].[Br-] | Stable | 8 | 32 | 8 | 16 | 8 | 4 |
| CCCCCCCCCCCCCCOC(=O)C[N+](C)(C)CC[N+](C)(C)CC(=O)OCCCCCCCCCCCCCC.[Br-].[Br-] | Stable | 32 | > 250 | 250 | 32 | 16 | 16 |
| CCCCCCCCCCCCOC(=O)C[N+](C)(C)CCC[N+](C)(CCC[N+](C)(C)CC(=O)OCCCCCCCCCCCC)CC(=O)OCCCCCCCCCCCC.[Br-].[Br-].[Br-] | Stable | 8 | 16 | 8 | 8 | 8 | 4 |
| CCCCCCOC(=O)C[N+](C)(C)CCC[N+](C)(CCC[N+](C)(C)CC(=O)OCCCCCC)CC(=O)OCCCCCC.[Br-].[Br-].[Br-] | Stable | 250 | > 250 | > 250 | 250 | 125 | 250 |
| CCCCCCCCCCNC(=O)C[N+](C)(C)CCC[N+](C)(CCC[N+](C)(C)CC(=O)NCCCCCCCCCC)CC(=O)NCCCCCCCCCC.[Br-].[Br-].[Br-] | Stable | 2 | 63 | 2 | 2 | 1 | 1 |
| CCCCCCCOC(=O)C[N+](C)(C)CCC[N+](C)(CCC[N+](C)(C)CC(=O)OCCCCCCC)CC(=O)OCCCCCCC.[Br-].[Br-].[Br-] | Stable | 32 | 125 | 125 | 32 | 16 | 32 |
| CCCCCCCCCCCCOC(=O)C[N+](C)(C)CCN1CC[N+](C)(CC(=O)OCCCCCCCCCCCC)CC1.[Br-].[Br-] | Stable | 8 | 32 | 16 | 32 | 8 | 8 |
| CCCCCCOC(=O)C[N+](C)(C)CCCN(CCC[N+](C)(C)CC(=O)OCCCCCC)CCC[N+](C)(C)CC(=O)OCCCCCC.[Br-].[Br-].[Br-] | Stable | 250 | > 250 | 250 | 250 | 63 | 63 |
| CCCCCCCCCCOC(=O)C[N+](C)(C)CC[N+](C)(C)CC(=O)OCCCCCCCCCC.[Br-].[Br-] | Stable | 8 | 32 | 8 | 16 | 8 | 4 |
| CCCCCCCCCCNC(=O)C[N+](C)(C)CC[N+](C)(C)CC(=O)NCCCCCCCCCC.[Br-].[Br-] | Stable | 1 | 2 | 1 | 1 | 0.5 | 1 |
| CCCCCCCCCCOC(=O)C[N+](C)(C)Cc1ccccc1.[Br-] | Stable | 32 | > 250 | 63 | 32 | 16 | 32 |
| CCCCCCCOC(=O)C[N+](C)(C)CCN1CC[N+](C)(CC(=O)OCCCCCCC)CC1.[Br-].[Br-] | Stable | > 250 | > 250 | > 250 | > 250 | 250 | > 250 |
| CCCCCCCCCCCCCCOC(=O)C[N+](C)(C)CCN1CC[N+](C)(CC(=O)OCCCCCCCCCCCCCC)CC1.[Br-].[Br-] | Stable | > 250 | > 250 | > 250 | > 250 | 250 | > 250 |
